PubChem BioAssay (NCI)
Values joined by “and” are separate entries in the source; they are usually repeats but may differ in a detail not shown here. Identical values can stand only once.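 Protocol summary: plate cells (96-well), add compound at 5 concentrations, incubate 48 h, interpolate endpoints linearly. GI50 = concentration required for 50% inhibition of growth. TGI is the concentration that stops growth completely.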

Tests used:
Test in all cases: NCI-60 cell line screen, 48 h
SK-MEL-28 melanoma = system: SK-MEL-28 melanoma
HOP-62 NSCLC = system: HOP-62 NSCLC
HL-60(TB) leukemia = system: HL-60(TB) leukemia
EKVX NSCLC = system: EKVX NSCLC
U251 CNS = system: U251 CNS
HCC-2998 colon = system: HCC-2998 colon
MALME-3M melanoma = system: MALME-3M melanoma

| SMILES | TGI (SK-MEL-28 melanoma) | TGI (HOP-62 NSCLC) | TGI (HL-60(TB) leukemia) | TGI (EKVX NSCLC) | TGI (U251 CNS) | TGI (HCC-2998 colon) | TGI (MALME-3M melanoma) | GI50 (SK-MEL-28 melanoma) | GI50 (HOP-62 NSCLC) | GI50 (HL-60(TB) leukemia) | GI50 (U251 CNS) | GI50 (HCC-2998 colon) | GI50 (MALME-3M melanoma) | GI50 (EKVX NSCLC) |
| --- | --- | --- | --- | --- | --- | --- | --- | --- | --- | --- | --- | --- | --- | --- |
| COC(=O)C(=O)C(C(=O)C(=O)Nc1ccccc1OC)c1nc2ccc([N+](=O)[O-])cc2[nH]c1=O (stereo not given) | > 100 µM | > 100 µM | > 100 µM | > 100 µM | > 100 µM | > 100 µM | > 100 µM | – | – | – | – | – | – | – |
| Cn1nc(C(F)(F)F)c(-c2cc(C(F)(F)F)cc(C(F)(F)F)c2)c1-c1ccc(OCc2ccc(Cl)cc2)cc1O | 10.7 µM | 8.57 µM | 5.57 µM | – | 12.1 µM | 12.4 µM | 5.24 µM | 2.32 µM | 2.82 µM | 2.08 µM | 2.38 µM | 2.77 µM | 1.99 µM | – |
| O=C(c1ccco1)c1c(C(F)(F)F)n([O-])c2cc(C(F)(F)F)ccc2[n+]1=O | 3.27 µM | 1.08 µM | 0.484 µM | 2.36 µM | 0.951 µM | 0.862 µM | 3.43 µM | 1.67 µM | 0.484 µM | 0.185 µM | 0.46 µM | 0.371 µM | 1.49 µM | 0.859 µM |
| CCCCCCCC(=O)SCC/C=C/[C@@H]1CC(=O)NCc2nc(cs2)C2=N[C@@](C)(CS2)C(=O)N[C@@H](C(C)C)C(=O)N1 | 25.8 µM | 13.1 µM | > 100 µM | > 100 µM | 0.364 µM | 0.408 µM | – | 0.0185 µM | 0.0321 µM | 0.013 µM | 0.0318 µM | 0.0224 µM | – | 0.0662 µM |
| COc1cc(OC)c(OC)cc1/C=C/c1cnnc2ccccc12 | > 10 µM | > 10 µM | > 10 µM | > 10 µM | > 10 µM | > 10 µM | > 10 µM | – | – | – | – | – | – | – |
| CC([C@H]1CC=C2C3CCC4=C[C@@H](N(C)C)CC[C@]4(C)C3CC[C@@]21C)N(C)C (stereo not given in full) | 3.38 µM | 3.87 µM | 3.66 µM | 18.3 µM | 15.4 µM | 13.1 µM | 4.47 µM | 1.74 µM | 1.8 µM | 1.26 µM | 3.21 µM | 4.21 µM | 1.92 µM | 1.99 µM |
| Cc1nc2ccccn2c1NC(=O)NNC(=S)Nc1ccc(F)cc1 | > 100 µM | > 100 µM | > 100 µM | > 100 µM | > 100 µM | > 100 µM | – | > 100 µM | > 100 µM | > 100 µM | > 100 µM | > 100 µM | – | > 100 µM |
| CC(=O)OC12c3ccccc3-c3ccccc3C1C(C(=O)O)C2C(=O)O (stereo not given) | > 10 µM | > 10 µM | > 10 µM | > 10 µM | > 10 µM | > 10 µM | 3.09 µM | – | – | – | – | – | – | – |
| CCOC(=O)C(Cc1ccccc1)NC(=O)c1[nH]cnc1/N=N/N(C)C (stereo not given) | > 100 µM | > 100 µM | > 100 µM | > 100 µM | > 100 µM | > 100 µM | > 100 µM | – | – | – | – | – | – | – |
| Cc1ccc2c(c1)C(=O)c1c-2c(OCCCN(C)C)nc2ccccc12 | 3.41 µM | 16 µM | 19.6 µM | 13.5 µM | 14.8 µM | 11.8 µM | 3.29 µM | 1.76 µM | 2.52 µM | 2.31 µM | 4.13 µM | 2.18 µM | 1.54 µM | 2.42 µM |
| O=C(Nc1ccc(F)cc1)Nc1ccc(Br)c(C(F)(F)F)c1 | 11.1 µM | – | 5.19 µM | 10.6 µM | 7.47 µM | 7.73 µM | 5.8 µM | 2.83 µM | – | 1.87 µM | 2.14 µM | 2.38 µM | 2.12 µM | 2.4 µM |
| Cc1[nH]c(N)nc(=S)c1CCC(=O)O | > 100 µM | > 100 µM | > 100 µM | > 100 µM | > 100 µM | > 100 µM | > 100 µM | – | – | – | – | – | – | – |
| C=C1SC(=Nc2ccccc2Cl)N(C(=O)c2sc3ccccc3c2Cl)C12CCCCC2 | > 100 µM | > 100 µM | 89.3 µM | > 100 µM | > 100 µM | > 100 µM | > 100 µM | > 100 µM | 9.08 µM | 6.63 µM | 4.42 µM | 7.27 µM | 29.2 µM | 3.2 µM |
| COc1ccc(NC(=O)c2sc3nc(C)c(C(=O)/C=C/c4cccc(OC)c4)cc3c2N)cc1 | – | 3.47 µM | 4.24 µM | 32.5 µM | 2.14 µM | 5.32 µM | 45 µM | – | 1.29 µM | 1.34 µM | 1.01 µM | 1.52 µM | 3.85 µM | 5.7 µM |
| COc1ccc2c(c1OC)C(C(Cl)(Cl)Cl)N1CCc3cc4c(cc3C1=C2)OCO4 (stereo not given) | 27.8 µM | – | 45.2 µM | > 100 µM | 43.1 µM | 29.5 µM | 37.3 µM | – | – | – | – | – | – | – |
| COC(=O)Nc1nc2ccc(C(=O)c3ccccc3)cc2[nH]1 | > 100 µM | > 100 µM | 0.636 µM | > 100 µM | > 100 µM | > 100 µM | > 100 µM | 0.651 µM and 0.464 µM | 0.61 µM and 3.19 µM | 0.255 µM and 0.233 µM | 0.5 µM and 0.398 µM | 2.31 µM and 2.13 µM | 0.559 µM and 0.201 µM | – |
| O=CN1N=C(c2cccc(Nc3ccnc4cc(Cl)ccc34)c2)CC1c1ccccc1 (stereo not given) | 24.6 µM | 17.3 µM | 0.487 µM | > 100 µM | 1.55 µM | 5.57 µM | > 100 µM | 0.65 µM | 0.495 µM | 0.213 µM | 0.358 µM | 1.03 µM | 0.373 µM | 0.949 µM |
| COc1ccc(/C=C2\SC(=Nc3ccccc3)NC2=O)cc1 | 44.8 µM | 26.1 µM | > 100 µM | – | 16.3 µM | > 100 µM | 99.8 µM | 8.06 µM | 7.06 µM | 3.53 µM | 3.98 µM | 10 µM | 19 µM | – |
| Cn1c(-c2ccccc2)c(/C=C/C2=[N+](C)c3ccccc3C2(C)C)c2ccccc21 | 11.8 µM | 12.6 µM | 0.565 µM | 10.4 µM | 12.8 µM | 3.42 µM | 3.1 µM | 1.19 µM | 2.15 µM | 0.254 µM | 0.46 µM | 0.365 µM | 0.68 µM | 0.397 µM |
